The test system of assay [1] is Candida albicans (ATCC #10231). Description: Microtiter assay, MIC to inhibit 90% growth. Type of assay: cell-based. The note with it: 24 hours, n = 3. The procedure: (§1) For assays to find minimum inhibitory concentrations, all treatments were diluted in 10% DMSO and 0.5% Tween 80 to stabilize the samples.
(§2) Microorganisms Escherichia coli (ATCC #8739), Streptococcus sanguinis (ATCC #BAA-1455), Salmonella enteria subsp. enterica (ex Kauffmann and Edwards) Le Minor and Popoff serovar Typhimurium (ATCC #14028), Staphylococcus aureus (ATCC #6538), Pseudomonas aeruginosa (ATCC #9027), and Candida albicans (ATCC #10231) were obtained from a −80° C. internal stock culture. Aspergillus brasiliensis (ATCC #16404) was obtained from an internal stock solution culture stored at 4° C. E. coli, S. enterica S. aureus, and P. aeruginosa were grown in tryptic soy broth (TSB) and incubated at 37° C. for 24 h. S. sanguinis was grown in brain heart infusion broth (BHI). A. brasiliensis was plated on Sabourand dextrose agar (SDA) and incubated at 25° C. for 5-7 days. C. albicans was grown in Sabourand dextrose broth (SDB) and incubated at 25° C. for 48 h.
(§3) A. brasiliensis was harvested by adding 18 mL sterile saline to the plate and agitating the mold from the agar with a sterile inoculating loop. The inoculum was collected upon agitation. All suspended microbes were diluted with the same type of broth media used to grow each organism until an inoculum in the range of 10^6 CFU/mL was achieved. The inoculum concentration was determined by plate count method. Each strain was identified by plating on the appropriate growth media, E. coli, S. aureus, and P. aeruginosa on tryptic soy agar (Bacto, BD Sciences, Manassas, Va.) and C. albicans and A. brasiliensis on Sabrouand dextrose agar, to ensure there was no contamination of the inoculum.
(§4) Microtiter Assay. A microtiter assay was completed E. coli, S. aureus, P. aeruginosa, S. enteria, S. sanguinis, and C. albicans. Briefly, 10^6 cfu/ml preparations of each organism were made and enumerated using a Petroff-Hausser counting chamber. A 100 μl aliquot of the inoculums was dispensed into microtiter plate wells and a 100 μl aliquot of treatment was dispensed into the same wells. Two separate set of wells were prepared as positive and negative controls, with the positive wells containing 100 μl test organism in growth media and 100 μl sterile phosphate buffer and with the negative control wells containing 100 μl of the same growth media and 100 μl sterile phosphate buffer. The plates were incubated overnight at the appropriate temperature for each organism. A plate reader was used to track the kinetic growth curve using 405 nm and […]. The last time point at 24 hours was averaged and used to determine MIC90. Each treatment was conducted in triplicate wells.

Assay [2] concerns Pseudomonas aeruginosa (ATCC #9027). Description: Microtiter assay, MIC to inhibit 90% growth. It is filed as cell-based. The settings on record: 24 hours, n = 3. The method, then: as §1, §2, §3, §4
Assay [3] relates to Escherichia coli (ATCC #8739). The experiment in a line: Microtiter assay, MIC to inhibit 90% growth. Type of assay: cell-based. The settings on record: 24 hours, n = 3. The method, then: as §1, §2, §3, §4
A further assay has as its system Salmonella enterica. Description: Microtiter assay, MIC to inhibit 90% growth. It is filed as cell-based. The note with it: 24 hours, n = 3. The procedure: as §1, §2, §3, §4
Assay [4] relates to Staphylococcus aureus (ATCC #6538). Description: Microtiter assay, MIC to inhibit 90% growth. Type of assay: cell-based. The note with it: 24 hours, n = 3. The procedure: as §1, §2, §3, §4
The test system of assay [5] is Streptococcus sanguinis (ATCC #BAA-1455). Description: Microtiter assay, MIC to inhibit 90% growth. The note with it: 24 hours, n = 3. Type of assay: cell-based. The procedure: as §1, §2, §3, §4
A further assay concerns A. brasiliensis. Description: Poison agar assay. Type of assay: cell-based, Aspergillus brasiliensis. The procedure: as §2, §3
A poison agar assay was completed for A. brasiliensis. Potato dextrose agar was used as the plated medium. Inocula at 10^5 cfu/ml were prepared and counted using a Petroff-Hausser counting chamber. Each treatment was added directly into the control without DMSO and Tween 80 as used in the previous experiments. The diameter of no growth around a 6 mm blank disk after incubation at 25° C. for 72 hrs was compared to the untreated control.

SMILES strings stand for the structures.

Take `Cc1ccc(C(C)C)cc1O` [Carvacrol, carvacrol]: the “Minimum Inhibitory Concentration (MIC) to inhibit 90% growth, C. albicans” value in assay [1] was 0.10%. For the same compound, the “Minimum Inhibitory Concentration (MIC) to inhibit 90% growth, P. aeruginosa” value in assay [2] is on record as over 0.1%. Also, the “Minimum Inhibitory Concentration (MIC) to inhibit 90% growth, E. coli” value in assay [3] came to 0.10%. Moreover, in the assay with Salmonella enterica, the “Minimum Inhibitory Concentration (MIC) to inhibit 90% growth, S. enterica” value came to 0.05%. For the same compound, the “Minimum Inhibitory Concentration (MIC) to inhibit 90% growth, S. aureus” value in assay [4] is reported as 0.05%. The “Minimum Inhibitory Concentration (MIC) to inhibit 90% growth, S. sanguinis” value in assay [5] stood at 0.05%. The “% Inhibition from Control” value with A. brasiliensis (0.005% in agar) amounted to 15.10%; with A. brasiliensis (0.010% in agar), 64.70%; with A. brasiliensis (0.030% in agar), 100.00%. Besides, the “Diameter of Growth” value with A. brasiliensis (0.005% in agar) stood at 6.50 mm; with A. brasiliensis (0.010% in agar), 2.70 mm; in the assay on A. brasiliensis (0.030% in agar), 0.00 mm. The “MIC90 in the poison agar assay” value against A. brasiliensis (potato dextrose agar, 25° C., 72 hrs) was found to be 0.03%.

The values are drawn from US9578878B2, “Antimicrobial efficacy of an oregano oil and caprylic acid blend” (Kemin Industries, Inc., priority 2014, dated 2017).
